Experimental data as given in US20070135521A1, “Agent for Preventing Metabolic Syndrome” (YAMAHA HATSUDOKI KABUSHIKI KAISHA, priority 2005, published 2007).

Experiments:
[1] = test system: obese model mice fed with a high-fat diet; test: Effect of astaxanthin monoester on obese model mice fed with a high-fat diet; format: in vivo, male C57BL/6J strain mice
Protocol: Astaxanthin was administered to obese model mice fed with a high-fat diet, and the change in body weight, the amount of subcutaneous fat (in the inguinal region and the back), the amount of visceral fat (around the reproductive organs and around the kidney), the liver weight, the blood glucose level, and the insulin concentration in blood were examined in the following manner.
Four week old male C57BL/6J strain mice (SPF) purchased from CHARLES RIVER LABORATORIES JAPAN, INC. were used. The mice were preliminarily fed for 8 days and used for the test after they reached the age of 5 weeks. The mice were divided into three groups of 8 each, that is, a normal diet group, a high-fat diet group, and a high-fat diet+astaxanthin (AX) group, so that the average body weight was equal among the groups.
During the preliminary feeding period, the mice were given an ordinary powder diet (MF, Oriental Yeast Co., Ltd.), and during the test period of 16 weeks, the mice were given the ordinary powder diet or a high-fat diet having the composition shown in Table 2 below. As to drinking water, the mice were allowed to drink freely sterile distilled water from a water supply bottle.
The astaxanthin monoester prepared in Preparation Example 1 was dissolved in an olive oil (Wako Pure Chemical Industries, Ltd.) to prepare a solution containing astaxanthin monoester at a concentration of 60 mg/mL. This solution was administered to the high-fat diet+AX group and the olive oil to the other two groups in a volume of 0.05 mL/10 g body weight every day for 16 weeks from the start of the test (at the age of 5 weeks) to the age of 21 weeks, using a sonde for oral administration in the mice.
During the test period, the body weight was measured once a week using a scale. At the end of the test, the body weight was measured, and thereafter, the mice were fasted overnight and the blood glucose level was measured in the tail of each mouse using OneTouch Ultra™ (manufactured by Life Scan Inc., a blood glucose level measuring device). Next, blood was collected from the heart using a heparinized syringe with heparin Na. Immediately after the collection of blood, blood plasma was separated by centrifugation, and the obtained blood plasma was cryopreserved at −80° C. Then, the liver, the adipose tissue in the inguinal region, the adipose tissue around the reproductive organs, the adipose tissue around the kidney, and the adipose tissue in the back were collected and the weights thereof were measured. Thereafter, the insulin concentration in blood was measured with a commercially available kit (Mouse Insulin ELISA KIT (TMB) (AKRIN-011T): Shibayagi Co., Ltd.), using the blood plasma collected at the end of the test.
The different types of data obtained were expressed as average values±standard errors for each group. In order to test for statistically significant differences between the high-fat diet group and the high-fat diet+AX group or the normal diet group, a multiple comparison test (ANOVA) was performed using an analysis software (Stat View, Abacus Inc., USA), and a comparison between the groups was performed using Fisher's PLSD multiple comparison test. Differences were considered statistically significant when p<0.05.

[2] = test system: Human umbilical vein endothelial cells (HUVECs); test: Measurement of 50% lethal concentration for HUVEC (alamarBlue); format: cell-based; conditions: 72 hours incubation, 250 μM = maximum concentration dissolved in DMSO
Protocol: Human umbilical vein endothelial cells (HUVECs) (ATCC CRL-1730) were obtained from American Type Culture Collection and precultivated in an Endothelial Cell Growth Medium (CELL APPLICATIONS, USA) containing 10% bovine fetal serum supplemented with 1% Antibiotic-Antimycotic (GIBCO BRL, USA) under a 5% CO2 atmosphere at 37° C.
A Matrigel matrix (BD Biosciences, USA) was melted and kept at 4° C. on ice, and then, 50 μL of the matrix were transferred to each well of a 96-well tissue culture plate. The plate was incubated at 37° C. for at least one hour to solidify the matrix solution.
On the other hand, the astaxanthin monoester obtained in Preparation Example 1 was dissolved in dimethylsulfoxide (DMSO), and then diluted with distilled water to prepare stock test solutions in which the astaxanthin monoester was contained in 40 (v/v)% DMSO at 25000, 2500, 250, 25, and 2.5 μM, respectively. […]
After the incubation, 20 μL of a 90% alamarBlue reagent were added to individual wells, and incubated for an additional 6 hours. Then, the fluorescence intensity of each well was measured at an excitation wavelength of 530 nm and an emission wavelength of 590 nm using a Spectrafluor Plus plate reader to count the number of living cells. […] The 50% lethal concentration was calculated as the concentration at which the number of living cells was 50% of the number of cells at the start of the experiment.

[3] = high-fat diet+AX vs high-fat diet, end of 16-week test, FIG. 2
[4] = high-fat diet+AX vs high-fat diet, end of 16-week test, FIG. 3

In the case of astaxanthin monoester, the “change over time in mean body weight” value ([1]; high-fat diet+AX group vs high-fat diet group, oral, every day for 16 weeks, 60 mg/mL in olive oil, 0.05 mL/10 g body weight, FIG. 1) is reported as “the increase in body weight tended to be suppressed”, the “mean weight of subcutaneous fat” value [1, 3] is reported as “the accumulation of fat was significantly suppressed” and the “mean weight of visceral fat” value [1, 3] is reported as “the accumulation of fat was significantly suppressed”. The “proportion of the liver weight to body weight” value [1, 4] was “the proportion approached that in the case of the normal diet”, the “proportions of the mean weights of the adipose tissues to mean body weight” value [1, 4] was “the increase was significantly suppressed” and the blood glucose level ([1]; high-fat diet+AX vs high-fat diet, fasted overnight, end of 16-week test, FIG. 5) was “maintained at the same level as that of the normal diet group”. The “insulin concentration in blood” value ([1]; high-fat diet+AX vs high-fat diet, plasma at end of 16-week test, FIG. 4) was “the insulin concentration was considerably suppressed” and the LC50 [2] was ≥ 250 µM.
